# Test results from patent publication US6613718B2, “Aryl ether derivatives and processes for their preparation and herbicidal and desiccant compositions containing them” (Ishihara Sangyo Kaisha, Ltd., priority 2001, dated 2003).
# Key:
# Type in all cases: in vivo
# Details in all cases: 14 days after application
# [1] = test system: barnyardgrass (Echinochloa crus-galli, ECHCG); experiment: Pre-emerge greenhouse herbicide activity screening, phytotoxicity rating
# Summary of the method: (§1)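 Plants grown in sandy loam pots received acetone solutions of compound by moving-nozzle track sprayer, 15–1000 g ai/ha. In post-emergence runs the foliage was at the 2-3 leaf stage and spray contained 0.25% v/v non-ionic surfactant. Damage was assessed visually after 14 days (0-100).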
# [2] = test system: common ragweed (Ambrosia artemisiifolia L., AMBEL); experiment: as above
# Summary of the method: as §1
# [3] = test system: green foxtail (Setaria viridis, SETVI); experiment: as above
# Summary of the method: as §1
# [4] = test system: ivyleaf morningglory (Ipomoea hederacea, IPOHE); experiment: as above
# Summary of the method: as §1
# [5] = test system: johnsongrass (Sorghum halepense, SORHA); experiment: as above
# Summary of the method: as §1
# [6] = test system: lambsquarters (Chenopodium album, CHEAL); experiment: as above
# Summary of the method: as §1
# [7] = test system: large crabgrass (Digitaria sanguinalis, DIGSA); experiment: as above
# Summary of the method: as §1
# [8] = test system: redroot pigweed (Amaranthus retroflexus, AMARE); experiment: as above
# Summary of the method: as §1
# [9] = test system: sicklepod (Cassia obtusifolia, CASOB); experiment: as above
# Summary of the method: as §1
# [10] = test system: velvetleaf (Abutilon theophrasti, ABUTH); experiment: as above
# Summary of the method: as §1
# [11] = test system: field corn (Zea mays L., var. Dekalb 535, CORN); experiment: Pre-emerge greenhouse screening, crop safety (phytotoxicity rating)
# Summary of the method: as §1
# [12] = test system: soybean (Glycine max L., var. Pella 86, SOY); experiment: as above
# Summary of the method: as §1
# [13] = test system: upland rice (Oryza sp., var.Tebonnet, RICE); experiment: as above
# Summary of the method: as §1
# [14] = test system: barnyardgrass (Echinochloa crus-galli, ECHCG); experiment: Post-emerge greenhouse herbicide activity screening, phytotoxicity rating
# Summary of the method: as §1
# [15] = test system: common ragweed (Ambrosia artemisiifolia L., AMBEL); experiment: as above
# Summary of the method: as §1
# [16] = test system: green foxtail (Setaria viridis, SETVI); experiment: as above
# Summary of the method: as §1
# [17] = test system: ivyleaf morningglory (Ipomoea hederacea, IPOHE); experiment: as above
# Summary of the method: as §1
# [18] = test system: johnsongrass (Sorghum halepense, SORHA); experiment: as above
# Summary of the method: as §1
# [19] = test system: lambsquarters (Chenopodium album, CHEAL); experiment: as above
# Summary of the method: as §1
# [20] = test system: large crabgrass (Digitaria sanguinalis, DIGSA); experiment: as above
# Summary of the method: as §1
# [21] = test system: redroot pigweed (Amaranthus retroflexus, AMARE); experiment: as above
# Summary of the method: as §1
# [22] = test system: sicklepod (Cassia obtusifolia, CASOB); experiment: as above
# Summary of the method: as §1
# [23] = test system: velvetleaf (Abutilon theophrasti, ABUTH); experiment: as above
# Summary of the method: as §1
# [24] = test system: field corn (Zea mays L., var. Dekalb 535, CORN); experiment: Post-emerge greenhouse screening, crop safety / corn selectivity (phytotoxicity rating)
# Summary of the method: as §1
# [25] = test system: soybean (Glycine max L., var. Pella 86, SOY); experiment: Post-emerge greenhouse screening, crop safety (phytotoxicity rating)
# Summary of the method: as §1
# [26] = test system: upland rice (Oryza sp., var.Tebonnet, RICE); experiment: as above
# Summary of the method: as §1
compound,measurement,setting,value
Cn1c(C(F)(F)F)cc(=O)n(-c2cc(Oc3ccccc3O)c(C#N)cc2F)c1=S [Compound 1-70],ECHCG phytotoxicity rating (0-100 scale),[1]; 125 g ai/ha,85
same,ECHCG phytotoxicity rating (0-100 scale),[1]; 250 g ai/ha,95
same,AMBEL phytotoxicity rating (0-100 scale),[2]; 125 g ai/ha,90
same,AMBEL phytotoxicity rating (0-100 scale),[2]; 250 g ai/ha,99
same,SETVI phytotoxicity rating (0-100 scale),[3]; 125 g ai/ha,75
same,SETVI phytotoxicity rating (0-100 scale),[3]; 250 g ai/ha,100
same,IPOHE phytotoxicity rating (0-100 scale),[4]; 125 g ai/ha,99
same,IPOHE phytotoxicity rating (0-100 scale),[4]; 250 g ai/ha,99
same,SORHA phytotoxicity rating (0-100 scale),[5]; 125 g ai/ha,65
same,SORHA phytotoxicity rating (0-100 scale),[5]; 250 g ai/ha,99
same,CHEAL phytotoxicity rating (0-100 scale),[6]; 125 g ai/ha,100
same,CHEAL phytotoxicity rating (0-100 scale),[6]; 250 g ai/ha,100
same,DIGSA phytotoxicity rating (0-100 scale),[7]; 125 g ai/ha,85
same,DIGSA phytotoxicity rating (0-100 scale),[7]; 250 g ai/ha,99
same,AMARE phytotoxicity rating (0-100 scale),[8]; 125 g ai/ha,100
same,AMARE phytotoxicity rating (0-100 scale),[8]; 250 g ai/ha,100
same,CASOB phytotoxicity rating (0-100 scale),[9]; 125 g ai/ha,65
same,CASOB phytotoxicity rating (0-100 scale),[9]; 250 g ai/ha,85
same,ABUTH phytotoxicity rating (0-100 scale),[10]; 125 g ai/ha,100
same,ABUTH phytotoxicity rating (0-100 scale),[10]; 250 g ai/ha,100
same,"CORN crop damage, phytotoxicity rating (0-100 scale)",[11]; 125 g ai/ha,15
same,"CORN crop damage, phytotoxicity rating (0-100 scale)",[11]; 250 g ai/ha,15
same,"SOY crop damage, phytotoxicity rating (0-100 scale)",[12]; 125 g ai/ha,30
same,"SOY crop damage, phytotoxicity rating (0-100 scale)",[12]; 250 g ai/ha,80
same,"RICE crop damage, phytotoxicity rating (0-100 scale)",[13]; 125 g ai/ha,50
same,"RICE crop damage, phytotoxicity rating (0-100 scale)",[13]; 250 g ai/ha,55
same,ECHCG phytotoxicity rating (0-100 scale),[14]; 125 g ai/ha,55
same,ECHCG phytotoxicity rating (0-100 scale),[14]; 250 g ai/ha,80
same,AMBEL phytotoxicity rating (0-100 scale),[15]; 125 g ai/ha,60
same,AMBEL phytotoxicity rating (0-100 scale),[15]; 250 g ai/ha,65
same,SETVI phytotoxicity rating (0-100 scale),[16]; 125 g ai/ha,65
same,SETVI phytotoxicity rating (0-100 scale),[16]; 250 g ai/ha,75
same,IPOHE phytotoxicity rating (0-100 scale),[17]; 125 g ai/ha,99
same,IPOHE phytotoxicity rating (0-100 scale),[17]; 250 g ai/ha,99
same,SORHA phytotoxicity rating (0-100 scale),[18]; 125 g ai/ha,0
same,SORHA phytotoxicity rating (0-100 scale),[18]; 250 g ai/ha,25
same,CHEAL phytotoxicity rating (0-100 scale),[19]; 125 g ai/ha,100
same,CHEAL phytotoxicity rating (0-100 scale),[19]; 250 g ai/ha,100
same,DIGSA phytotoxicity rating (0-100 scale),[20]; 125 g ai/ha,15
same,DIGSA phytotoxicity rating (0-100 scale),[20]; 250 g ai/ha,30
same,AMARE phytotoxicity rating (0-100 scale),[21]; 125 g ai/ha,100
same,AMARE phytotoxicity rating (0-100 scale),[21]; 250 g ai/ha,100
same,CASOB phytotoxicity rating (0-100 scale),[22]; 125 g ai/ha,65
same,CASOB phytotoxicity rating (0-100 scale),[22]; 250 g ai/ha,65
same,ABUTH phytotoxicity rating (0-100 scale),[23]; 125 g ai/ha,100
same,ABUTH phytotoxicity rating (0-100 scale),[23]; 250 g ai/ha,100
same,"CORN crop damage, phytotoxicity rating (0-100 scale)",[24]; 125 g ai/ha,0
same,"CORN crop damage, phytotoxicity rating (0-100 scale)",[24]; 250 g ai/ha,0
same,"SOY crop damage, phytotoxicity rating (0-100 scale)",[25]; 125 g ai/ha,30
same,"SOY crop damage, phytotoxicity rating (0-100 scale)",[25]; 250 g ai/ha,65
same,"RICE crop damage, phytotoxicity rating (0-100 scale)",[26]; 125 g ai/ha,0
same,"RICE crop damage, phytotoxicity rating (0-100 scale)",[26]; 250 g ai/ha,0
